Data set [1] concerns HIV-1IIIB in MT-2 cells. Kind of data set: Time-of-addition assay (p24 production). It counts as cell-based. As to conditions: 0.1 μM. As for the experimental part: FIG. 1 NB-206 and its analogs inhibited HIV-1 entry. Inhibition of HIV-1 entry was determined by a time-of-addition assay. NB-206 (2.5 μM) and its analog NB-231 (2.5 μM) were added to MT-2 cells at different intervals post-infection by HIV-1IIIB. AZT (0.1 μM), a reverse transcriptase inhibitor, was included as a control. Each sample was tested in triplicate.
Assessment of anti-HIV-1 infectivity. […] Reactions were terminated by addition of 1N H2SO4.
A time-of-addition assay was carried out to determine whether NB-206 and its analogs are HIV-1 entry inhibitors. MT-2 cells were incubated with HIV-1IIIB at 37° C. for 0, 1, 2, 3, 4, 6, and 8 hrs, respectively, before addition of NB-206 and NB-231 at 2.5 μM. AZT (0.1 μM) was used as a control. After culture for another 2 hrs, the cells were washed to remove the free-virus and compounds. The supernatants were collected on day 4 post-infection for measurement of p24 production.

In data set [2] the test system is HIV-1. The conditions noted are these: previously reported; cited from earlier work.
Data set [3] relates to HIV-1IIIB infected H9 cells (H9/HIV-1IIIB) and MT-2 cells. Kind of data set: HIV-1 mediated cell-cell fusion (dye transfer assay). As to conditions: H9/HIV-1IIIB with MT-2 cells; read-out: EC50 (μM) (M ± SD) for inhibition of Cell fusion. The format is cell-based. As for the experimental part:
Inhibition of cell-cell fusion. A dye transfer assay was used for detection of HIV-1 mediated cell fusion as previously described (11,25,26). H9/HIV-1IIIB cells were labeled with a fluorescent reagent, Calcein-AM (Molecular Probes, Inc., Eugene, Oreg.) and then incubated with MT-2 cells (ratio=1:5) in 96-well plates at 37° C. for 2 hrs in the presence or absence of compounds tested. The fused and unfused Cacein-labeled HIV-1-infected cells were counted under an inverted fluorescence microscope (Zeiss, Germany) with an eyepiece micrometer disc. The percentage of inhibition of cell fusion and the IC50 values were calculated as previously described (11).

The test system of data set [4] is HIV-1IIIB-infected H9 cells (H9/HIV-1IIIB) cocultured with MT-2 cells. The conditions noted are these: single dose 25 μg/ml, HTS.
Description: Syncytium-formation assay for screening HIV-1 fusion inhibitors. HIV-1IIIB-infected H9 cells (H9/HIV-1IIIB) at 2×10^5/ml were cocultured with MT-2 cells (2×10^6/ml) in the presence of compounds to be screened (final concentration of compound: 25 μg/ml) in a 96-well plate at 37° C. for 2 days. HIV-1 induced syncytium formation was observed under an inverted microscope and scored as “−” (no syncytium was observed), “±” (about 50% syncytia were inhibited), and “+” (no syncytium formation was inhibited). The compounds scored with “−” and “±” were selected for further screening by ELISA for inhibitors against the gp41 six-helix bundle formation.
Data set [5] relates to HIV-1 IIIB. As for the experimental part: Assessment of anti-HIV-1 infectivity. The inhibitory activity of compounds on infection by laboratory-adapted HIV-1 strains was determined as previously described (34). […] For the time-of-addition assay, compounds were added at various time post-infection. Then the culture supernatants were removed and fresh media were added. On the fourth day post-infection, 100 μl of culture supernatants were collected from each well, mixed with equal volumes of 5% Triton X-100 and assayed for p24 antigen, which was quantitated by ELISA (23). Briefly, the wells of polystyrene plates (Immulon 1B, Dynex Technology, Chantilly, Va.) were coated with HIV immunoglobulin (HIVIG), which was prepared from plasma of HIV-seropositive donors with high neutralizing titers against HIV-1IIIB as previously described (36) in 0.085 M carbonate-bicarbonate buffer (pH 9.6) at 4° C. overnight, followed by washes with PBS-T buffer (0.01M PBS containing 0.05% Tween-20) and blocking with PBS containing 1% dry fat-free milk (Bio-Rad Inc., Hercules, Calif.). Virus lysates were added to the wells and incubated at 37° C. for 1 h. […] Reactions were terminated by addition of 1N H2SO4. […] Recombinant protein p24 (US Biological, Swampscott, Mass.) was included for establishing standard dose response curve.

The test system of data set [6] is HIV-1 IIIB. Kind of data set: HIV-1-mediated cytopathic effect (CPE). The format is cell-based. The conditions noted are these: read-out: EC50 (μM) (M ± SD) for inhibition of CPE. The source says:
We thus purchased these compounds and tested their inhibitory activity on: 1) HIV-1 replication (p24 production); 2) HIV-1-mediated cytopathic effect (CPE); and 3) HIV-1 Env-induced cell-cell fusion; and their cytotoxicity to MT-2 cells.

For data set [7], the target named is gp41 six-helix bundle formation between N36 and C34 (Human immunodeficiency virus type 1 group M subtype B, UniProt P04578). As to the method: ELISA for screening for compounds that inhibit the gp41 six-helix bundle formation. A sandwich ELISA as previously described (27) was used to screen for compounds that inhibit the gp41 six-helix bundle formation. Briefly, peptide N36 (2 μM) was pre-incubated with a test compound at the indicated concentrations at 37° C. for 30 min, followed by addition of C34 (2 μM). In the control experiments, N36 was pre-incubated with C34 at 37° C. for 30 min, followed by addition of the test compound. After incubation at 37° C. for 30 min, the mixture was added to wells of a 96-well polystyrene plate (Costar, Corning Inc., Corning, N.Y.) which were precoated with IgG (2 μg/ml) purified from rabbit antisera directed against the N36/C34 mixture. […] Absorbance at 450 nm was measured using an ELISA reader (Ultra 384, Tecan, Research Triangle Park, N.C.). […] Chou (Sloan-Kettering Cancer Center, New York, N.Y.).
Sequence of gp41 six-helix bundle formation between N36 and C34 (P04578 546-581): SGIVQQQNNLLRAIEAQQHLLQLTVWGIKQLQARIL
A model system of the gp41 six-helix bundle was established by mixing the N— and C-peptides at equal molar concentrations (16).

Data set [8] has as its system MT-2 cells. The conditions noted are these: read-out: Cytotoxicity CC50 (μM) (M ± SD); MT-2 cells. As for the experimental part:
Detection of in vitro cytotoxicity. The in vitro cytotoxicity of compounds for MT-2 cells was measured by a colorimetric method using XTT tetrazolium dye as previously described (21). Briefly, 100 μl of a compound at a graded concentration was added to equal volume of cells (5×10^5/ml) in a well of 96-well plates. After incubation at 37° C. for 4 days, XTT (1 mg/ml; […]; PolySciences, Inc., Warrington, Pa.) was added. Four hours later, the soluble intracellular formazan was quantitated colorimetrically at 450 nm with a reference at 570 nm.

Read-outs that look alike come from different tables or passages of the source.

As to `Cc1cn([C@H]2C[C@H](N=[N+]=[N-])[C@@H](CO)O2)c(=O)[nH]c1=O` [AZT], the “inhibition of HIV-1 replication, added 8 hrs post-infection” value in data set [1] is given as “still effective”.

Regarding `COc1ccc(S(=O)(=O)[O-])cc1N=Nc1c(S(=O)(=O)[O-])cc2cc(Nc3nc(Nc4ccccc4)nc(Nc4cc(C)c(N=Nc5cc(S(=O)(=O)[O-])cc6cc(S(=O)(=O)[O-])cc(O)c56)cc4OC)n3)ccc2c1O.[Na+].[Na+].[Na+].[Na+]` [ADS-J1], the anti-HIV-1 activities result in data set [2] is reported as “micromolar levels”.

In the case of `O=C(O)c1cccc(-c2ccc(/C=C3\SC(=S)N(c4cccc(Cl)c4)C3=O)o2)c1` [NB145], the EC50 – broadly, the midpoint of the concentration-response curve – in data set [3] is 1.77 ± 0.09 µM; in data set [5] (read-out: EC50 (μM) (M ± SD) for inhibition of p24, HIV-1 IIIB, MT-2 cells), 0.18 ± 0.02 µM; in data set [6], 0.18 ± 0.006 µM. In data set [4], the “inhibition of HIV-1 mediated syncytium formation” value is given as “completely inhibited”. Moreover, in data set [5] (selectivity index), the “SI (CC50/EC50)” value worked out at 261.5. Also, in data set [7] (single dose 25 μg/ml, HTS), the “inhibition of six-helix bundle formation between N36 and C34” value is “completely inhibited”. For the same molecule, the CC50 (commonly the concentration giving 50% cytotoxicity) in data set [8] turned out to be 47.5 ± 6.37 µM.

For the molecule `O=C(O)c1cccc(-c2ccc(/C=C3\SC(=S)N(c4cccc(C(F)(F)F)c4)C3=O)o2)c1` [NB154], in data set [7] (read-out: IC50 for inhibition of six-helix bundle formation between N36 and C34, sandwich ELISA, FIG. 3), the IC50 – broadly, the concentration needed to halve the response being measured – was 1560 ± 120 nM.
